Source: article PMC11555231 (Nature Communications, 2024)
Like-named read-outs stand apart in the source and are kept apart here. One block for each molecule: values may come before it. Bridge positions count the residues as written; N and C are the ends. Square brackets hold non-standard residues; d marks the D form. Peptide text beside a SMILES is read from it. Cit = NC(=O)NCCC[C@H](N)C(=O)O

Assays:
[1] = biological target: T1, hPADI4 (Homo sapiens, UniProt Q9UM07); test: COLDER assay, inhibition of PADI4 at 10 mM CaCl2 (substrate BAEE); type: biochemical
T1 construct: PADI4 (residues 1–663); Avi-Tag (unbiotinylated); made in house; host or cells: E. coli BL21(DE3) without BirA
T1 sequence (Q9UM07 whole entry, the tested form may be a part): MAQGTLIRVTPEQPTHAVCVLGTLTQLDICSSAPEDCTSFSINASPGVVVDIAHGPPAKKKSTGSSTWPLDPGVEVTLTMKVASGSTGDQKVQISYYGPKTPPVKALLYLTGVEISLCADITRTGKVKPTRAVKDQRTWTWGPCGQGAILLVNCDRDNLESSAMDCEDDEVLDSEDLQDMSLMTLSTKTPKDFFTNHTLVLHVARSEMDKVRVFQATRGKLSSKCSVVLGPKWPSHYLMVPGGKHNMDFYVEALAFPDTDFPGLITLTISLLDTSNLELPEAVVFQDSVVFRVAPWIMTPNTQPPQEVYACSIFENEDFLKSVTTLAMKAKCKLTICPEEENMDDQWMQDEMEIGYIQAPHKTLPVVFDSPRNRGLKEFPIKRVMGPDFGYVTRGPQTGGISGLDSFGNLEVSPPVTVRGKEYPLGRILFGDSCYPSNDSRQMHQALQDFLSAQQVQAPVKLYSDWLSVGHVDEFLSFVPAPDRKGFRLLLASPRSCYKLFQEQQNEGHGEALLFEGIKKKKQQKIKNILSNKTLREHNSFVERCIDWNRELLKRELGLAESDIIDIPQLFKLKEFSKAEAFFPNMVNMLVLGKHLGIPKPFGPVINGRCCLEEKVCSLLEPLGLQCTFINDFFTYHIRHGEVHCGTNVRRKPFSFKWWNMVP
Method: PADI4 activity was assessed using the COLDER assay[43] that measures the formation of urea-containing compounds (e.g. citrulline). The reaction was carried out in a 96-well plate with a final volume of 50 µl. His-PADI4 (50 nM) was incubated with different concentrations of peptides (100 µM to 0.3 nM) in the presence of CaCl2 (from 10 mM to 0.001 mM as specified) for 10 min. The reaction was started by the addition of 10 mM N^α-Benzoyl-L-arginine ethyl ester hydrochloride (BAEE, Merck). After 30 min, the reaction was quenched with EDTA (50 mM final concentration). For colour development, 200 µl of COLDER solution, consisting of 1 volume of solution A (80 mM diacetyl monoxime/2,3-butanedione monoxime (Merck) and 2 mM thiosemicarbazide (Acros Organics)) and 3 volumes of solution B (3 M H3PO4, 6 M H2SO4 and 2 mM NH4Fe(SO4)2) were added to each well and the mixture was heated at 95 °C for 15 min. After cooling to RT, absorbance at 540 nm was measured, and citrulline concentration was determined using a standard curve of citrulline standards. All studies were performed within the linear range of PADI4 activity, and data analysis was performed using Prism GraphPad (Dotmatics). Data are presented as the average ± standard error of the mean from at least two independent replicates.

[2] = biological target: T2, Bio-hPADI4 wt (Homo sapiens, UniProt Q9UM07); test: Surface plasmon resonance (SPR), single cycle kinetics, peptide binding to immobilised PADI4
T2 construct: PADI4 (residues 1–663); Avi-Tag (biotinylated by BirA); made in house; host or cells: E. coli BL21-DE3 co-expressing BirA
T2 sequence (Q9UM07 whole entry, the tested form may be a part): as above
Method: Single cycle kinetics analysis by SPR was carried out using a Biacore T200 or S200 and a Biotin CAPture kit, series S (Cytiva). […] 50 mM HEPES (pH 7.5), 150 mM NaCl, 2 mM DTT, 0.05 % Tween-20, 0.1% DMSO and variable CaCl2 (as specified) was used as the running buffer and experiments performed at 25 °C.
Samples were run with 120 s contact time, and variable dissociation time (often 360 s). Data were analysed using the Biacore T200 analysis software; data was fitted to a 1:1 binding model accounting for baseline drift where necessary. Data are presented as the average ± standard deviation of at least two independent replicates.

SMILES: N=C(N)NCCC[C@@H]1NC(=O)[C@@H](Cc2ccc(O)cc2)NC(=O)CSC[C@@H](C(=O)NCC(N)=O)NC(=O)[C@H](Cc2ccc(O)cc2)NC(=O)[C@H](CCCCN)NC(=O)[C@@H]2CCCN2C(=O)[C@H](Cc2c[nH]cn2)NC(=O)[C@H](Cc2c[nH]c3ccccc23)NC(=O)[C@H](Cc2ccc(O)cc2)NC(=O)[C@H](Cc2c[nH]cn2)NC(=O)[C@H](Cc2c[nH]cn2)NC(=O)[C@H](CC(=O)O)NC1=O [PADI4_3.20] ({CH2CO}-[dY]RDHHYWHPKYCG-NH2; thioether N-12)
- IC50 ([1]; COLDER inhibition assay, mean of the 3 experiments printed beside it (stdev in a separate column), read-out: IC50): 79.1 nM

- IC50 ([1]; average of 3 replicates (Stdev in separate column), COLDER assay, 10 mM CaCl2, substrate BAEE, source data of Figure 2F, read-out: IC50s Average): 83.2 nM
SMILES: N=C(N)NCCC[C@@H]1NC(=O)[C@@H](Cc2ccc(O)cc2)NC(=O)CSC[C@@H](C(=O)NCC(N)=O)NC(=O)[C@H](Cc2ccc(O)cc2)NC(=O)[C@H](CCCCN)NC(=O)[C@@H]2CCCN2C(=O)[C@H](Cc2c[nH]cn2)NC(=O)[C@H](CCCNC(N)=O)NC(=O)[C@H](Cc2ccc(O)cc2)NC(=O)[C@H](Cc2c[nH]cn2)NC(=O)[C@H](Cc2c[nH]cn2)NC(=O)[C@H](CC(=O)O)NC1=O [PADI4_3.R7Cit] ({CH2CO}-[dY]RDHHY[Cit]HPKYCG-NH2; thioether N-12)

- Kd ([2]; 0 mM CaCl2, 25 °C, read-out: KD 0 mM CaCl2, bound printed in µM): > 2 µM
- Kd ([2]; 10 mM CaCl2, PADI4 active site blocked with Cl-amidine, 25 °C, read-out: KD 10 mM CaCl2 + Cl-amidine, bound given in µM): > 2 µM
- Kd ([2]; 10 mM CaCl2 in running buffer, 25 °C, read-out: KD 10 mM CaCl2, bound printed in µM): > 2 µM
SMILES: CC[C@H](C)[C@@H]1NC(=O)[C@H](CC(C)C)NC(=O)[C@H](Cc2c[nH]c3ccccc23)NC(=O)[C@@H]2CCCN2C(=O)[C@H]([C@@H](C)O)NC(=O)[C@H](C)NC(=O)[C@@H](Cc2ccc(O)cc2)NC(=O)CSC[C@@H](C(=O)NCC(N)=O)NC(=O)[C@H](CC(C)C)NC(=O)[C@H](C(C)C)NC(=O)[C@H](C(C)C)NC1=O [PADI4_5] ({CH2CO}-[dY]ATPWLIVVLCG-NH2; thioether N-11)

- Kd ([2]; Fig. 5D, mean ± SEM of three independent repeats, read-out: KD (µM) of PADI4_11 analogues): 0.5 ± 0.3 µM
SMILES: CC(C)C[C@H](NC(=O)[C@H](CCC(N)=O)NC(=O)[C@H](CC(C)C)NC(=O)[C@@H](NC(=O)[C@H](C)NC(=O)[C@H](CCCNC(=N)N)NC(=O)[C@H](Cc1ccc(O)cc1)NC(=O)[C@H](CCCNC(=N)N)NC(=O)[C@@H]1CSCC(=O)N[C@@H](Cc2ccc(O)cc2)C(=O)N[C@@H](CCC(=O)O)C(=O)N[C@@H](CO)C(=O)N1)C(C)C)C(N)=O [Q8A] ({CH2CO}-YESCRYRAVLQL-NH2; thioether N-4)
